Laboratory results as given in paper PMC9071858, “Comparative Pharmacokinetics of Seven Major Compounds in Normal and Atherosclerosis Mice after Oral Administration of Simiao Yong'an Decoction” (Evidence-based Complementary and Alternative Medicine : eCAM, 2022).

Assays:
[1] = Pharmacokinetic study in atherosclerosis (AS) model ApoE−/− mice after oral administration of SMYAD; format: in vivo, mouse; settings: AS mice, plasma, SMYAD intragastric 35 g/kg/d for seven days, mean ± SD, n = 5; for AUC(0-t) / AUC(0-inf) / Cmax / half-life / Tmax: male, ApoE−/− on a C57BL/6 background, mouse, po, 35 g/kg/day; for AUC(0-t): read-out: AUC0–t; for AUC(0-inf): read-out: AUC0–∞; for Cmax: read-out: C max; for half-life: read-out: t 1/2 (converted); for Tmax: read-out: t max
Experimental: (§1) Male C57BL/6J mice and ApoE^−/− mice on a C57BL/6 background (7 weeks old, 18–22 g) were purchased from Beijing Vital River Laboratory Animal Technology Co., Ltd. (Beijing, China, Certificate No.: SCXK (Jing) 2016-0006). All the mice were kept in an SPF animal house (Dongzhimen Hospital Affiliated to Beijing University of Chinese Medicine, Certificate No.: SYXK (Jing) 2015-0001) with food and water freely available, 12 h light/dark, and environmental conditions of 22°C–24°C, 50% relative humidity. All protocols of animal experiments were performed in accordance with the National Guidelines for Laboratory Animal Welfare and were approved by the Animal Ethics Committee of Beijing University of Chinese Medicine (NO. BUCM-4-2015071701-3001). High-fat feeding (containing 15% fat and 0.25% cholesterol) was provided by Beijing HFK bioscience CO., LTD. (Beijing, China, Certificate No.: SCXK (Jing) 2014-0018).
The AS model was established by a high-fat diet and perivascular carotid collar placement (PCCP) surgery in the ApoE^−/− mice. After a 7-day adaptive feeding, the mice were given a high-fat diet for 2 weeks; before anesthesia, all ApoE^−/− mice were fasted for 12 hours. During the surgery, the right common carotid artery was exposed, and a silicone cannula (length: 2.5 mm, inner diameter: 0.3 mm) was fixed around the carotid artery (external diameter: about 0.5 mm). Penicillin was injected intraperitoneally for 3 days after surgery to prevent infection. High-fat diet continued for 8 weeks after surgery to establish AS model. Biochemical assays and hematoxylin and eosin (HE) staining were used to evaluate whether AS model was successfully established.
(§2) After successful induction of AS model, SMYAD was administered to NC and AS mice by intragastric gavage at the crude drug dose of 35 g/kg/d for seven days. Blood samples were collected from each mouse in heparinized tubes via the postorbital venous plexus veins at 0, 0.25, 0.5, 1, 2, 4, 6, 8, 10, 12, 18, and 24 h after seven days of drug administration. Then blood samples were immediately centrifuged at 3500 rpm at 4°C for 10 min and the plasma was stored at −80°C until use.
(§3) Each plasma sample (100 μL) was mixed with a threefold volume of methanol and 25 μL IS in a 1.5 mL EP tube. Then the mixture was vortexed for 100 seconds and centrifuged at 12,000 rpm for 10 min at 4°C. The supernatant was transferred to another EP tube and evaporated to dryness under a nitrogen vacuum. The residue was reconstituted with 100 μL of 50% methanol and centrifuged at 15,000 rpm for 15 min. Then the supernatant was transferred to sample vials for the LC-MS analysis.
(§4) A Vanquish UHPLC™ system (Thermo Fisher Scientific Inc., USA) was used for the analysis. Samples were separated on an Atlantis T3 column (4.6 mm × 150 mm, 3 μm; Waters, USA). The column temperature was 40°C. The mobile phase, at 0.4 mL/min, consisted of water containing 0.1% formic acid (v/v, A) and methanol (B). The quantitative analysis gradient program was as follows: 0-1 min, 0 B; 1–6 min, 0–100% B; 6–12 min, 100% B; 12–12.1 min, 100%-0 B; 12.1–15 min, 0 B. The injection volume was 5 μL.
The mass spectrometer Q Exactive HF-X (Thermo Fisher Scientific Inc., USA) system was connected to the UHPLC system via heated electrospray ionization (HESI) and controlled by Xcalibur 4.2 software (Thermo Fisher) that was used for data collection and analysis. The mass spectrometer was operated in a negative ionization mode. The MS parameters were set as follows: probe heater temperature, 350°C; capillary temperature: 320°C; sheath gas (N2) flow rate: 30 arbs; auxiliary gas (N2) flow rate: 10 arbs; spray voltage: 3.2 kV (negative); S-Lens RF level: 55 V; scan mode: full MS (resolution 12000); scan range: m/z 150–1500. The most abundant ions in the spectra were selected for sensitive quantitation ([M-H]^−of chlorogenic acid, angoroside C, liquiritin, isoliquiritigenin, and IS, [M + COOH]^− of harpagide, swertiamarin, and sweroside). […]

[2] = Pharmacokinetic study in normal control (NC) mice after oral administration of SMYAD; format: in vivo, mouse; settings: NC mice, plasma, SMYAD intragastric 35 g/kg/d for seven days, mean ± SD, n = 5; for AUC(0-t) / AUC(0-inf) / Cmax / half-life / Tmax: male, C57BL/6J, mouse, po, 35 g/kg/day; for AUC(0-t): read-out: AUC0–t; for AUC(0-inf): read-out: AUC0–∞; for Cmax: read-out: C max; for half-life: read-out: t 1/2 (converted); for Tmax: read-out: t max
Experimental: as §1, §2, §3, §4
The mass spectrometer Q Exactive HF-X (Thermo Fisher Scientific Inc., USA) system was connected to the UHPLC system via heated electrospray ionization (HESI) and controlled by Xcalibur 4.2 software (Thermo Fisher) that was used for data collection and analysis. The mass spectrometer was operated in a negative ionization mode. The MS parameters were set as follows: probe heater temperature, 350°C; capillary temperature: 320°C; sheath gas (N2) flow rate: 30 arbs; auxiliary gas (N2) flow rate: 10 arbs; spray voltage: 3.2 kV (negative); S-Lens RF level: 55 V; scan mode: full MS (resolution 12000); scan range: m/z 150–1500. The most abundant ions in the spectra were selected for sensitive quantitation ([M-H]^−of chlorogenic acid, angoroside C, liquiritin, isoliquiritigenin, and IS, [M + COOH]^− of harpagide, swertiamarin, and sweroside).
The pharmacokinetic parameters, including maximum plasma concentration (Cmax), time corresponding to Cmax (Tmax), terminal elimination half-life (T1/2), area under plasma concentration-time curve (AUC0–t) and area under the plasma concentration-time curve from 0 to infinity time (AUC0–∞), apparent volume of distribution (Vz/F) and clearance (CLz/F), were calculated using the noncompartment model in DAS 2.0 software package (Shanghai, China). GraphPad prism 6.02 (GraphPad Software, USA) was used in the statistical analysis. All values are expressed as mean ± standard error. For the pharmacokinetic parameter values of the NC and AS groups, Student's t-test was employed for data comparisons. P values <0.05 were considered statistically significant.

[3] = Stability of analytes in QC plasma samples; format: in vitro ADME, mouse; settings: n = 5
Experimental: All solutions were stored at 4°C.
Stability was evaluated as five replicate QC samples at two concentration levels (see Table 5).

[4] = high QC level (600 harpagide, 800 chlorogenic acid, 4800 swertiamarin, 1000 sweroside, 200 others ng/ml)
[5] = low QC level ([…] harpagide, 51.2 chlorogenic acid, 307.2 swertiamarin, 64 sweroside, 12.8 others ng/ml)

COc1ccc(CCO[C@@H]2O[C@H](CO[C@@H]3OC[C@H](O)[C@H](O)[C@H]3O)[C@@H](OC(=O)/C=C/c3ccc(O)c(OC)c3)[C@H](O[C@@H]3O[C@@H](C)[C@H](O)[C@@H](O)[C@H]3O)[C@H]2O)cc1O [Angoroside C, angoroside C]
CLz/F [1]: 313200 ± 39800 µL/min/mg | Vz/F [1]: 126.00 ± 102.72 L/mg | AUC(0-t) [1]: 1840 ± 298 ng·h/mL | AUC(0-inf) [1]: 1890 ± 226 ng·h/mL | Cmax [1]: 491 ± 239 ng/mL | half-life [1]: 7.33 ± 4.68 h | Tmax [1]: 2.05 ± 1.19 h | CLz/F [2]: 495800 ± 401700 µL/min/mg | Vz/F [2]: 148.22 ± 76.23 L/mg | AUC(0-t) [2]: 1730 ± 883 ng·h/mL | AUC(0-inf) [2]: 1870 ± 1050 ng·h/mL | Cmax [2]: 289 ± 124 ng/mL | half-life [2]: 7.4 ± 4.76 h | Tmax [2]: 0.85 ± 0.62 h | Freeze-thaw stability 3 freeze-thaw cycles Accuracy RE [3, 4]: −1.74% | Freeze-thaw stability 3 freeze-thaw cycles Calc. conc. [3, 4]: 196.52 ± 13.15 ng/mL | Long-term stability −20°C for 30 d Accuracy RE [3, 4]: −10.51% | Long-term stability −20°C for 30 d Calc. conc. [3, 4]: 178.97 ± 6.04 ng/mL | Postpreparative stability 24 h in the autosampler (4°C) Accuracy RE [3, 4]: −7.27% | Postpreparative stability 24 h in the autosampler (4°C) Calc. conc. [3, 4]: 185.46 ± 9.39 ng/mL | Short-term stability 24 h in room temperature (20°C) Accuracy RE [3, 4]: 1.92% | Short-term stability 24 h in room temperature (20°C) Calc. conc. [3, 4]: 203.84 ± 4.39 ng/mL | Freeze-thaw stability 3 freeze-thaw cycles Accuracy RE [3, 5]: 5.68% | Freeze-thaw stability 3 freeze-thaw cycles Calc. conc. [3, 5]: 13.53 ± 0.98 ng/mL | Long-term stability −20°C for 30 d Accuracy RE [3, 5]: 1.73% | Long-term stability −20°C for 30 d Calc. conc. [3, 5]: 13.02 ± 1.17 ng/mL | Postpreparative stability 24 h in the autosampler (4°C) Accuracy RE [3, 5]: 1.70% | Postpreparative stability 24 h in the autosampler (4°C) Calc. conc. [3, 5]: 13.02 ± 1.05 ng/mL | Short-term stability 24 h in room temperature (20°C) Accuracy RE [3, 5]: 4.09% | Short-term stability 24 h in room temperature (20°C) Calc. conc. [3, 5]: 13.32 ± 1.09 ng/mL

C=C[C@H]1[C@H](O[C@@H]2O[C@H](CO)[C@@H](O)[C@H](O)[C@H]2O)OC=C2C(=O)OCC[C@]21O [Swertiamarin, swertiamarin]
CLz/F [1]: 95000 ± 32200 µL/min/mg | Vz/F [1]: 55.16 ± 45.04 L/mg | AUC(0-t) [1]: 5540 ± 2010 ng·h/mL | AUC(0-inf) [1]: 7240 ± 3390 ng·h/mL | Cmax [1]: 1340 ± 603 ng/mL | half-life [1]: 5.74 ± 1.9 h | Tmax [1]: 0.9 ± 0.64 h | CLz/F [2]: 97000 ± 44000 µL/min/mg | Vz/F [2]: 20.82 ± 11.26 L/mg | AUC(0-t) [2]: 5350 ± 1180 ng·h/mL | AUC(0-inf) [2]: 5400 ± 1240 ng·h/mL | Cmax [2]: 1430 ± 636 ng/mL | half-life [2]: 4.43 ± 2.06 h | Tmax [2]: 5 ± 4.97 h | Freeze-thaw stability 3 freeze-thaw cycles Accuracy RE [3, 4]: 7.37% | Freeze-thaw stability 3 freeze-thaw cycles Calc. conc. [3, 4]: 5153.93 ± 132.15 ng/mL | Long-term stability −20°C for 30 d Accuracy RE [3, 4]: 0.75% | Long-term stability −20°C for 30 d Calc. conc. [3, 4]: 4835.93 ± 153.29 ng/mL | Postpreparative stability 24 h in the autosampler (4°C) Accuracy RE [3, 4]: 3.51% | Postpreparative stability 24 h in the autosampler (4°C) Calc. conc. [3, 4]: 4968.64 ± 208.19 ng/mL | Short-term stability 24 h in room temperature (20°C) Accuracy RE [3, 4]: 9.88% | Short-term stability 24 h in room temperature (20°C) Calc. conc. [3, 4]: 5274.04 ± 147.92 ng/mL | Freeze-thaw stability 3 freeze-thaw cycles Accuracy RE [3, 5]: −5.86% | Freeze-thaw stability 3 freeze-thaw cycles Calc. conc. [3, 5]: 289.21 ± 13.27 ng/mL | Long-term stability −20°C for 30 d Accuracy RE [3, 5]: 1.41% | Long-term stability −20°C for 30 d Calc. conc. [3, 5]: 311.53 ± 14.38 ng/mL | Postpreparative stability 24 h in the autosampler (4°C) Accuracy RE [3, 5]: −4.67% | Postpreparative stability 24 h in the autosampler (4°C) Calc. conc. [3, 5]: 292.85 ± 19.45 ng/mL | Short-term stability 24 h in room temperature (20°C) Accuracy RE [3, 5]: −8.88% | Short-term stability 24 h in room temperature (20°C) Calc. conc. [3, 5]: 279.92 ± 15.61 ng/mL
